Results reported in patent US20060111447A1, “Inhibiting progressive cognitive impairment” (priority 2002, published 2006).
Where two headings read alike, the source gives them in different places.

Columns and labels:
[1] = test system: Aβ40; conditions: CHO cells with APPswe and hCOX-2, nimesulide concentrations down to 10^−12 M
Text: FIG. 10A-C. […] (C) Aβ42 levels in CHO cells transfected with APPswe and LacZ (open bars) or with APPswe and hCOX-2 (filled bars). Data are expressed as means±S.E.M. (percent of control LacZ transfection from three independent studies).
Using an adenovirus vector, hCOX-2 was transfected and expressed in CHO cells which had been stably transfected with APPswe (see above).

[2] = test system: γ-secretase; conditions: CHO-APPswe cells, 0.1 micromolar, 24 hours
[3] = test system: Aβ42
Text: (§1) FIG. 11A-B. CHO cells were transfected with APPswe and LacZ (open bars) or with APPswe and hCOX-2(filled bars), as in FIG. 10A-C.

[4] = clinical; conditions: human, po, 100 mg twice daily
Method: A tolerability study was performed in elderly human subjects (Aisen et al., 2002, Neurology 58(7):1050-1054).

[5] = in vivo; conditions: B6SJ1, mouse, brain relative to serum, oral, 1500 mg/kg of diet, level of nimesulide in the brain relative to serum levels, mice, nimesulide 1500 mg/kg of diet for three months, brain parenchyma
[6] = test system: PGE2; conditions: mice, same brain, nimesulide 1500 mg/kg of diet for three months
[7] = cited from earlier work
[8] = test system: complement ClqB; conditions: in vivo; cited from earlier work
[9] = mice
[10] = test system: Aβ40; conditions: CHO-APPswe cells, 0.1 micromolar, 24 hours
Method: (§2) The amount of amyloid β peptides produced was measured by an ELISA assay from BioSource (Camarillo, Calif.). Samples were diluted 1:10 in buffer (0.05% (v/v) Tween-20, 1 mM Pefabloc protease inhibitors) followed by centrifugation for 20 minutes at 4° C. Total Aβ40 or Aβ42 were measured by sandwich ELISA following the manufacturer's instructions.

[11] = test system: Aβ42; conditions: CHO-APPswe cells, 0.1 micromolar, 24 hours
Method: as §2

[12] = test system: γ-secretase
Method: as §1
CHO cells were transfected with APPswe and LacZ (open bars) or with APPswe and hCOX-2 (filled bars), as in the preceding Section 11, and γ-secretase and Aβ42 levels were measured.

[13] = test system: sAPPα; experiment: sAPPα levels in SY5Y neuroblastoma cells (6E10 immunoreactivity, Western blot); format: cell-based; conditions: 1 μM and 5 μM
[14] = CHO-APPswe cells transfected with hCOX-2, 10^−9 molar

| SMILES | effect on hCOX-2 mediated increase in Aβ40 levels [1] | inhibition of γ-secretase activity [2] | effect on hCOX-2 increased Aβ42 concentration ([3]; CHO-APPswe cells transfected with hCOX-2, 10^−6 molar) | effect on hCOX-2 increased Aβ42 concentration [3, 14] | concentration at 24 weeks ([4]; brain) [µM] | concentration at 24 weeks ([4]; serum) [µM] | Kp at 3 months [5] | decrease of PGE2 content [6] | tolerability, long term treatment ([7]; clinical study, up to 104 weeks) | cognitive benefit in AD patients ([7]; twelve-week clinical trial) | tolerability in AD patients ([7]; twelve-week clinical trial) | effect on hCOX-2 induced increase of ClqB levels in the brain [8] | necropsy findings ([9]; nimesulide 1500 mg/kg of diet (50 mg/kg per day) for 3 months) | tolerability ([9]; nimesulide 1500 mg/kg of diet for 3 months) | decrease of the amount of Aβ40 [10] | decrease of the amount of Aβ42 [11] | effect on hCOX-2 mediated increase of γ-secretase activity [12, 14] | additional decrease of γ-secretase levels ([12]; both hCOX-2 and LacZ-transfected CHO-APPswe cells, 10^−6 molar) | levels of sAPPα relative to controls (6E10 immunoreactivity) [13] |
| --- | --- | --- | --- | --- | --- | --- | --- | --- | --- | --- | --- | --- | --- | --- | --- | --- | --- | --- | --- |
| CS(=O)(=O)Nc1ccc([N+](=O)[O-])cc1Oc1ccccc1 [nimesulide, 4-nitro-2-phenoxymethanesulfonanilide] | virtually nullified | approximately 40% | decreased to essentially control levels | slightly decreased | ~1 | ~10 | ~0.1 | approximately 50% | well tolerated | no cognitive benefit was observed | well tolerated | able to block that increase | did not demonstrate any gross alterations or renal or intestinal abnormalities | well tolerated | 20-25% | 20-25% | decreased to control levels | 10-15% | – |
| CS(=O)(=O)c1ccc(C2=C(c3ccccc3)C(=O)OC2)cc1 [Rofecoxib] | – | – | – | – | – | – | – | – | – | – | – | – | – | – | – | – | – | – | decreased |
